Assays:
Assay in all cases: relative viability (nuclei count vs DMSO), 5 days (fraction); higher = more cells survive
[1] = compound: Cc1nc(Nc2ncc(C(=O)Nc3c(C)cccc3Cl)s2)cc(N2CCN(CCO)CC2)n1 [Dasatinib] + CC(=O)Nc1cccc(-n2c(=O)n(C3CC3)c(=O)c3c(Nc4ccc(I)cc4F)n(C)c(=O)c(C)c32)c1 [Trametinib] (partner 0.02 µM)
Method in brief: (§1)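 Lung cancer cell lines were pin-tool dosed in 1536-well plates on the day after seeding, with either a lone drug or a fixed anchor-drug dose plus five library-drug doses (not always all listed) in √10 steps. Nuclei were counted on 4× images after 5 days. Relative viability is the ratio of treated-well to vehicle-well nuclei counts, with each value a median of duplicate plates.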

[2] = compound: Cc1ccc(C(=O)Nc2cccc(C(F)(F)F)c2)cc1Nc1cncc(C(N)=O)c1 [ALW-II-49-7] + C[C@@H](Oc1cc(-c2cnn(C3CCNCC3)c2)cnc1N)c1c(Cl)ccc(F)c1Cl [Crizotinib] (partner 1 µM)
Method in brief: as §1

[3] = compound: Cc1ccc(C(=O)Nc2cccc(C(F)(F)F)c2)cc1Nc1cncc(C(N)=O)c1 [ALW-II-49-7] + CS(=O)(=O)N1CCN(Cc2cc3nc(-c4cccc5[nH]ncc45)nc(N4CCOCC4)c3s2)CC1 [Pictilisib] (partner 1 µM)
Method in brief: as §1

[4] = compound: C1CC1C(=O)NC2=NNC3=C2C=CC(=C3)C4=CC(=CC=C4)C(=O)NC5CC5 [XMD13-2] + CC(=O)c1c(C)c2cnc(Nc3ccc(N4CCNCC4)cn3)nc2n(C2CCCC2)c1=O [Palbociclib] (partner 0.5 µM)
Method in brief: as §1

Cell Line	relative viability ([1]; first compound 0.005 µM)	relative viability ([1]; first compound 0.01581 µM)	relative viability ([1]; first compound 0.05 µM)	relative viability ([1]; first compound 0.1581 µM)	relative viability ([1]; first compound 0.5 µM)	relative viability ([2]; first compound 0.08 µM)	relative viability ([2]; first compound 0.253 µM)	relative viability ([2]; first compound 0.8 µM)	relative viability ([2]; first compound 2.53 µM)	relative viability ([2]; first compound 8 µM)	relative viability ([3]; first compound 0.08 µM)	relative viability ([3]; first compound 0.253 µM)	relative viability ([3]; first compound 0.8 µM)	relative viability ([3]; first compound 2.53 µM)	relative viability ([3]; first compound 8 µM)	relative viability ([4]; first compound 0.05 µM)	relative viability ([4]; first compound 0.1581 µM)	relative viability ([4]; first compound 0.5 µM)	relative viability ([4]; first compound 1.581 µM)	relative viability ([4]; first compound 5 µM)
NCI-H2085	0.485	0.297	0.195	0.214	0.159	0.762	0.889	0.898	0.905	0.938	0.499	0.496	0.445	0.5	0.537	0.488	0.477	0.481	0.429	0.472
NCI-H2087	0.291	0.2	0.178	0.124	0.101	1.07	0.843	0.957	0.758	0.851	1.12	1.14	0.722	0.959	0.933	0.248	0.261	0.184	0.184	0.258
NCI-H2126	0.641	0.425	0.551	0.424	0.309	0.857	0.976	1.06	0.998	0.987	0.493	0.473	0.514	0.471	0.502	0.385	0.398	0.309	0.336	0.323
NCI-H2170	0.929	0.828	0.834	0.651	0.365	1.3	1.12	1.3	1.21	1.09	0.25	0.302	0.294	0.317	0.286	0.392	0.4	0.399	0.407	0.319
NCI-H2228	0.463	0.776	0.556	0.39	0.249	0.541	0.505	0.423	0.483	0.27	0.477	0.464	0.428	0.34	0.254	1.03	0.779	0.724	0.709	0.818
NCI-H2347	0.25	0.277	0.221	0.157	0.164	0.683	0.69	0.676	0.671	0.583	0.519	0.505	0.505	0.633	0.493	0.471	0.424	0.465	0.382	0.471
NCI-H2405	0.431	0.365	0.351	0.272	0.233	0.928	0.806	0.832	0.826	0.68	0.409	0.526	0.368	0.345	0.366	0.545	0.529	0.474	–	0.518
NCI-H3122	0.234	0.249	0.248	0.222	0.192	0.309	0.272	0.271	0.331	0.307	0.695	0.458	0.614	0.708	0.971	0.191	0.202	0.142	0.177	0.181
PC-3 [JPC-3]	0.771	0.736	0.79	0.704	0.528	0.854	0.979	1.05	1.06	1.01	0.657	0.799	0.745	0.711	0.616	0.558	0.508	0.571	–	0.532
PC-14	0.882	0.642	0.743	0.418	0.0498	0.911	0.953	0.841	0.863	0.866	0.602	0.599	0.696	0.544	0.553	0.597	0.526	0.517	0.586	0.568
RERF-LC-KJ	0.855	0.784	0.765	0.668	0.658	0.831	0.924	0.992	0.831	0.741	0.599	0.557	0.608	0.542	0.624	1.06	1.11	1.1	1.04	1.03
SK-LU-1	0.349	0.306	0.291	0.247	0.252	0.863	0.898	0.988	0.853	0.584	0.522	0.715	0.44	–	0.514	0.42	0.393	0.38	0.378	0.319
SK-MES-1	0.566	0.475	0.361	0.217	0.157	0.885	0.979	0.948	0.926	0.7	0.331	0.48	0.367	0.365	0.397	0.308	0.312	0.304	0.329	0.326
SW 1573	0.531	–	0.475	0.33	0.433	0.884	0.747	0.748	1.1	0.707	0.475	0.486	0.465	0.47	0.465	0.442	0.366	0.717	0.371	0.287

From the supplement of paper PMC10307832
